According to ChEMBL document CHEMBL1201862, “PubChem BioAssay data set” (2004):
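Compound exposure: 48 hours, 5 concentrations, 96-well plates. Here, GI50 denotes the concentration required for 50% inhibition of growth.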 Calls of active or inactive are those of the source. Cut-off read from the data, not from the text of the source: active = GI50 up to about 1.1 µM and inactive = higher.

How the values were obtained:
Test in all cases: growth of human tumour cells (NCI), 48 h
KM12 = system: KM12
RPMI-8226 = system: RPMI-8226
SF-268 = system: SF-268
MOLT-4 = system: MOLT-4
TK-10 = system: TK-10
UACC-62 = system: UACC-62
786-0 = system: 786-0
UO-31 = system: UO-31
NCI-H23 = system: NCI-H23
HOP-92 = system: HOP-92
SR = system: SR
OVCAR-8 = system: OVCAR-8
U-251 = system: U-251
LOX IMVI = system: LOX IMVI
SW-620 = system: SW-620
SF-295 = system: SF-295
HL-60 = system: HL-60
SNB-75 = system: SNB-75

Row | Compound | GI50 (KM12) | GI50 (RPMI-8226) | GI50 (SF-268) | GI50 (MOLT-4) | GI50 (TK-10) | GI50 (UACC-62) | GI50 (786-0) | GI50 (UO-31) | GI50 (NCI-H23) | GI50 (HOP-92) | GI50 (SR) | GI50 (OVCAR-8) | GI50 (U-251) | GI50 (LOX IMVI) | GI50 (SW-620) | GI50 (SF-295) | GI50 (HL-60) | GI50 (SNB-75)
1 | C=C(C)C1C/C=C(/C)CCCC2(CCC3=C(CC(C(=C)C)C/C=C(/C)CCC3)O2)C(=O)C1 (centres undefined) | > 100 µM (inactive) | > 100 µM (inactive) | > 100 µM (inactive) | > 100 µM (inactive) | > 100 µM (inactive) | > 100 µM (inactive) | > 100 µM (inactive) | > 100 µM (inactive) | > 100 µM (inactive) | > 100 µM (inactive) | > 100 µM (inactive) | > 100 µM (inactive) | > 100 µM (inactive) | > 100 µM (inactive) | > 100 µM (inactive) | > 100 µM (inactive) | > 100 µM (inactive) | > 100 µM (inactive)
2 | COc1cc(CCC(=O)NS(=O)(=O)c2ccccc2)cc(OC)c1OC | > 100 µM (inactive) | > 100 µM (inactive) | > 100 µM (inactive) | > 100 µM (inactive) | > 100 µM (inactive) | > 100 µM (inactive) | > 100 µM (inactive) | > 100 µM (inactive) | > 100 µM (inactive) | > 100 µM (inactive) | > 100 µM (inactive) | > 100 µM (inactive) | > 100 µM (inactive) | > 100 µM (inactive) | > 100 µM (inactive) | > 100 µM (inactive) | > 100 µM (inactive) | 61.4 µM (inactive)
3 | O=C1CC(=O)N(CCc2ccccc2)S(=O)(=O)N1CCc1ccccc1 | 16.2 µM (inactive) | 24.4 µM (inactive) | 29.1 µM (inactive) | 20.3 µM (inactive) | 36.6 µM (inactive) | 25.9 µM (inactive) | 17.1 µM (inactive) | 21.8 µM (inactive) | 25 µM (inactive) | 16.6 µM (inactive) | 22.7 µM (inactive) | > 10 µM (inactive) | 16.9 µM (inactive) | 1.91 µM (inactive) | 31.8 µM (inactive) | 16.9 µM (inactive) | 19.1 µM (inactive) | 23.1 µM (inactive)
4 | COC(=O)C1=C(C(=O)OC)N(C(C)C)[C@H]2C(C(=O)OC)=C(C(=O)OC)N(C(C)C)[C@@H]12 | > 100 µM (inactive) | 84.1 µM (inactive) | > 100 µM (inactive) | 71 µM (inactive) | > 100 µM (inactive) | > 100 µM (inactive) | > 100 µM (inactive) | > 100 µM (inactive) | > 100 µM (inactive) | > 100 µM (inactive) | 48 µM (inactive) | > 100 µM (inactive) | > 100 µM (inactive) | > 100 µM (inactive) | > 100 µM (inactive) | > 100 µM (inactive) | 61.5 µM (inactive) | 93.3 µM (inactive)
5 | NNC(=O)/C(=C/c1ccc(Cl)cc1Cl)NC(=O)c1ccccc1 | > 100 µM (inactive) | 86.7 µM (inactive) | > 100 µM (inactive) | 60.5 µM (inactive) | > 100 µM (inactive) | 41 µM (inactive) | > 100 µM (inactive) | > 100 µM (inactive) | > 100 µM (inactive) | > 100 µM (inactive) | > 100 µM (inactive) | > 100 µM (inactive) | > 100 µM (inactive) | > 100 µM (inactive) | > 100 µM (inactive) | > 100 µM (inactive) | > 100 µM (inactive) | > 100 µM (inactive)
6 | CCCCC(C)C(OC(=O)CC(CC(=O)O)C(=O)O)C(CC(C)CC(O)CCCCC(O)CC(O)C(C)N)OC(=O)CC(CC(=O)O)C(=O)O (centres undefined) | > 100 µM (inactive) | > 100 µM (inactive) | > 100 µM (inactive) | > 100 µM (inactive) | > 100 µM (inactive) | > 100 µM (inactive) | > 100 µM (inactive) | > 100 µM (inactive) | > 100 µM (inactive) | > 65.8 µM (inactive) | > 100 µM (inactive) | > 100 µM (inactive) | > 100 µM (inactive) | > 100 µM (inactive) | > 100 µM (inactive) | > 100 µM (inactive) | > 69.8 µM (inactive) | > 78.3 µM (inactive)
7 | C=C(C)C1CC=C(C)C(O)([C@@]2(O)C[C@H](C(=C)C)CC=C2C)C1 (some centres undefined) | 19.3 µM (inactive) | 20.5 µM (inactive) | 29.9 µM (inactive) | 17.8 µM (inactive) | 33.3 µM (inactive) | 19.8 µM (inactive) | 16.8 µM (inactive) | 28.4 µM (inactive) | 17.3 µM (inactive) | 12.9 µM (inactive) | 21.7 µM (inactive) | 17.2 µM (inactive) | 16.7 µM (inactive) | 13.9 µM (inactive) | 26.7 µM (inactive) | 18.9 µM (inactive) | 23.1 µM (inactive) | 15.4 µM (inactive)
8 | CCOc1ccccc1N1C(=O)C(=O)C(c2nc3ccccc3o2)C(=O)C1=O | – | > 100 µM (inactive) | > 100 µM (inactive) | > 100 µM (inactive) | 39.7 µM (inactive) | > 100 µM (inactive) | 21.2 µM (inactive) | 61.5 µM (inactive) | > 100 µM (inactive) | > 100 µM (inactive) | > 100 µM (inactive) | 70.5 µM (inactive) | > 100 µM (inactive) | > 100 µM (inactive) | > 100 µM (inactive) | 20.8 µM (inactive) | > 100 µM (inactive) | 42.6 µM (inactive)
9 | [O-][Cl+3]([O-])([O-])[O-].c1ccc(-c2csc3c4ccccc4c4ccccc4[n+]23)cc1 | 1.47 µM (inactive) | 4.55 µM (inactive) | 2.34 µM (inactive) | 2.18 µM (inactive) | 13.6 µM (inactive) | 1.88 µM (inactive) | 4.85 µM (inactive) | 10.7 µM (inactive) | 0.553 µM (active) | 4.41 µM (inactive) | 4.99 µM (inactive) | 2.59 µM (inactive) | 2.45 µM (inactive) | 4.58 µM (inactive) | 3.5 µM (inactive) | 1.14 µM (inactive) | 1.91 µM (inactive) | 2.35 µM (inactive)
10 | O=C(NC12CC3CC(CC(C3)C1)C2)C(=O)c1c[nH]c2ccc(Cl)cc12 | 35.6 µM (inactive) | 19.9 µM (inactive) | 49 µM (inactive) | 7.89 µM (inactive) | – | 40.1 µM (inactive) | 6.24 µM (inactive) | 66.4 µM (inactive) | > 100 µM (inactive) | 22.9 µM (inactive) | 54.5 µM (inactive) | – | 56.5 µM (inactive) | 10.1 µM (inactive) | – | 11.1 µM (inactive) | 17.3 µM (inactive) | 20.9 µM (inactive)
11 | CCCCCCCC(=O)NCC(O)CNC(=O)CCCCCCC | > 100 µM (inactive) | > 100 µM (inactive) | > 100 µM (inactive) | > 100 µM (inactive) | > 100 µM (inactive) | > 100 µM (inactive) | > 100 µM (inactive) | > 100 µM (inactive) | > 100 µM (inactive) | > 100 µM (inactive) | > 100 µM (inactive) | > 100 µM (inactive) | > 100 µM (inactive) | > 100 µM (inactive) | > 100 µM (inactive) | > 100 µM (inactive) | > 100 µM (inactive) | > 100 µM (inactive)
